Structures can show the parent of a compound that is named as a salt.
Tested on: mushroom tyrosinase (polyphenol oxidase) Sigma T3824
Assay: Testing of polymer production in enzymatic tyrosinase (polyphenol oxidase) reaction
Type: biochemical
Design: key: +++: Reacted within about 1 hour; ++: reacted within about 3 hours; +: reacted within about 24 hours; +/−: inconclusive results; −: no reaction
Conditions: approx. 50 mM potassium phosphate buffer pH 6.5, approx. 5 mM substrate, 100 to 10,000 units enzyme, observed over 24 hours
Procedure: All reactions were carried out in approximately 50 mM potassium phosphate buffer, pH 6.5 with approximately 5 mM substrate and mushroom tyrosinase (polyphenol oxidase) Sigma T3824 in an amount of 100 to 10,000 units. Reaction volumes varied from 200 μl to 2 ml. In cases where substrates were not completely solubilized, then a saturated solution was used as the limit of solubility. In some cases, a solution of DMSO was used to increase solubility of the substrates. […] The reactions were observed over a 24 hour period for the production of polymers, and the presence and color of polymer and solution was recorded.
The production of polymers in each reaction was visible as a precipitate in the well of a 96 well plate or in the reaction mixture on a glass slide.

Row | SMILES | Result (polymer production in tyrosinase reaction)
1 | Cl.NCCc1ccccc1 [Beta phenylethylamine HCL] | +/−
2 | c1ccc2[nH]ccc2c1 [Indole] | −
3 | Cl.NCCc1ccc(O)cc1 [Tyramine HCl] | +++ (Reacted within about 1 hour)
4 | NCCc1ccc(O)cc1 [Tyramine] | +++ (Reacted within about 1 hour)

Next, values leading:

Row | Result (polymer production in tyrosinase reaction) | SMILES
5 | + (reacted within about 24 hours) | Oc1ccc2cc(O)ccc2c1 [2,6 dihydroxnaphthalene]
6 | +++ (Reacted within about 1 hour) | Oc1ccc2[nH]ccc2c1 [5-hydroxyindole]
7 | ++ (reacted within about 3 hours) | Oc1ccc2cc[nH]c2c1 [6 Hydroxyindole]
8 | ++ (reacted within about 3 hours) | CN[C@@H](Cc1ccc(O)cc1)C(=O)O [N-methyl tyrosine]
9 | ++ (reacted within about 3 hours) | N[C@@H](Cc1ccc(O)cc1)C(=O)O [Tyrosine]

Same assay, conditions: as E1, substrate (or a marked component) dissolved in 20% DMSO

Row | Result (polymer production in tyrosinase reaction) | SMILES
10 | + (reacted within about 24 hours) | Oc1ccc(-c2cc(-c3ccc(O)cc3)cc(-c3ccc(O)cc3)c2)cc1 [1,3,5 Tris(4hydroxyphenyl)benzene]
11 | − | Oc1ccc2c(c1)[nH]c1ccccc12 [2 Hydroxy carbazole]

Row | SMILES | Result (polymer production in tyrosinase reaction)
12 | CC1=NCCc2c1[nH]c1cc(O)ccc21 [Harmalol HCl dehydrate] | −

— patent US9193819B2, “Polymers, substrates, methods for making such, and devices comprising the same” (Avertica, Inc., priority 2013, dated 2015)
